Values after ≈ are worked out from the molar mass of the structure shown.
Experiments:
Assay type in all cases: functional
Staphylococcus aureus = assay: Antibacterial activity against Staphylococcus aureus
Pseudomonas aeruginosa = assay: Antibacterial activity against Pseudomonas aeruginosa
Escherichia coli = assay: Antibacterial activity against Escherichia coli

In the case of `CCCN1CCN(c2cc3c(cc2F)c(=O)c(C(=O)O)cn3CC)CC1`, the MIC (Staphylococcus aureus) is reported as 16 µg/mL (≈ 44.3 µM), the MIC (Pseudomonas aeruginosa) is reported as 4 µg/mL (≈ 11.1 µM) and the MIC (Escherichia coli) is reported as 4 µg/mL (≈ 11.1 µM).

With `c1ccc(-c2ccccn2)nc1` [DIPYRIDYL] the MIC (Staphylococcus aureus) was 256 µg/mL (≈ 1640 µM), the MIC (Pseudomonas aeruginosa) was 256 µg/mL (≈ 1640 µM) and the MIC (Escherichia coli) was 256 µg/mL (≈ 1640 µM).

Work on `CCN1CCN(c2cc3c(cc2F)c(=O)c(C(=O)O)cn3C2CC2)CC1` [ENROFLOXACIN] yielded an MIC (Staphylococcus aureus) of 8 µg/mL (≈ 22.3 µM), an MIC (Pseudomonas aeruginosa) of 1 µg/mL (≈ 2.78 µM) and an MIC (Escherichia coli) of 1 µg/mL (≈ 2.78 µM).

With `CCn1cc(C(=O)O)c(=O)c2cc3c(cc21)OCO3` [OXOLINIC ACID] the MIC (Staphylococcus aureus) was 16 µg/mL (≈ 61.2 µM), the MIC (Pseudomonas aeruginosa) was 16 µg/mL (≈ 61.2 µM) and the MIC (Escherichia coli) was 1 µg/mL (≈ 3.83 µM).

`c1cnc2c(c1)ccc1cccnc12` [PHENANTHROLINE] showed an MIC (Staphylococcus aureus) of 32 µg/mL (≈ 178 µM), an MIC (Pseudomonas aeruginosa) of 32 µg/mL (≈ 178 µM) and an MIC (Escherichia coli) of 32 µg/mL (≈ 178 µM).
